According to patent US20190216835A1 (priority 2016, published 2019):

System: Zika virus strain MR766
Type: cell-based
Conditions: for effect on replication of Zika virus (percent infected cells, FIG. 1): Vero cells infected 48 h with ZIKV MR766, MOI 0.3-0.5, compound added at time of infection, DMSO control
Protocol: FIG. 1 is a bar graph showing the results of experiments wherein Vero cells were infected for 48 h with Zika virus MR766 and stained for DNA and double stranded viral RNA. The indicated compounds at the indicated concentrations were added at the time of infection. Mean percent infected cells of n=3 experiments are shown +/−SD.
FIG. 2 is a set of images of Vero cells infected for 48 h with Zika virus MR766 and stained for DNA (blue) and double stranded viral RNA (green). Either Lanatoside 6 nM or DMSO (v/v) was added at the time of infection. Mean percent infected cells of n=3 experiments are shown +/−SD.
The effects of a number of small molecules previously reported to be effective in inhibiting replication of related viruses were evaluated on replication of the Zika virus using an immunofluorescence readout for viral protein expression. Molecules tested included Ivermectin 18898-1G; Mycophenolic acid M3536-50MG; Brequinar SML0113-5MG; Sodium Oxamate O2751-5G; Chloroquine C6628-25G; Hydroxychloroquine H0915-5MG; and Lanatoside C L2261-100MG.
Cells: Vero cells (ATCC, CCL-81) were cultured in complete Dulbecco's Modified Eagle Media (Sigma) with 10% FBS (Invitrogen) and 2 mM L-glutamine (Invitrogen).
Viruses: Zika virus strain MR766 was kindly provided by Dr. Robert Tesh at the World Reference Center for Emerging Viruses and Arboviruses at the University of Texas Medical Branch in Galveston Tex. MR766 was obtained originally from a Rhesus macaque in Uganda in 1947. Viruses were propagated in Vero cells (ATCC) (Dick et al., 1952) and the titer determined by standard plaque assays and immunofluorescence imaging assays for E protein expression.
Infection assays: Vero cells were plated the night before in a 384-well plate format. The following day the cells were infected with ZIKV MR766 at an MOI of 0.3-0.5 in the presence of the indicated compounds or the DMSO control (v/v). 48 hr post-infection the cells are fixed with formalin, permeabilized with 0.1% Triton-X100 and immunostained using the 4G2 monoclonal antibody against the E protein. The cells were then incubated with an Alexa Fluor 488 goat anti-mouse secondary and stained for DNA with Hoechst 33342. The cells were imaged on an automated Image Express Micro (IXM) microscope at 4× magnification. Images were analyzed using the MetaXpress software program to determine the total cells per well, and the percentage of infected cells in each well.

Row | Molecule | effect on replication of Zika virus (percent infected cells, FIG. 1) | stopping replication of the virus (FIG. 2) (Vero cells infected 48 h with ZIKV MR766, Lanatoside 6 nM vs DMSO added at time of infection)
1 | 22,23-dihydroavermectin B1a+22,23-dihydroavermectin B1b [ivermectin] | significant effect | 
2 | CC(=O)O[C@H]1C[C@H](O[C@H]2[C@@H](O)C[C@H](O[C@H]3[C@@H](O)C[C@H](O[C@H]4CC[C@@]5(C)[C@H](CC[C@@H]6[C@@H]5C[C@@H](O)[C@]5(C)[C@@H](C7=CC(=O)OC7)CC[C@]65O)C4)O[C@@H]3C)O[C@@H]2C)O[C@H](C)[C@H]1O[C@@H]1O[C@H](CO)[C@@H](O)[C@H](O)[C@H]1O [Lanatoside C, 3β-[4-O-β-D-Glycopyranosyl-4-O-(3-O-acetyl-β-D-digitoxopyranosyl)-4-O-β-D-digitoxopyranosyl-β-D-digitoxopyranosyl]-12β,14-dihydroxy-5β,14β-card-20(22)-enolid] | significant effect | effective at stopping replication of the virus
3 | NC(=O)c1ncn([C@@H]2O[C@H](CO)[C@@H](O)[C@H]2O)n1 [ribavirin, 1-[(2R,3R,4S,5R)-3,4-dihydroxy-5-(hydroxymethyl)oxolan-2-yl]-1H-1,2,4-triazole-3-carboxamide] | significant effect | 
